According to US10179774B2, “Synthesis of chirally purified substituted benzothiazole diamines” (priority 2007, dated 2019):

Experiments:
monkeys = conditions: single oral dose; cited from earlier work
dogs = conditions: single oral dose, 'and above'; cited from earlier work
rodents [1] = conditions: single oral dose, 'and above'; cited from earlier work
rodents [2] = system: rodents
humans = conditions: cited from earlier work

Q: With `CCCNC1CCc2nc(N)sc2C1` (stereo not shown) [pramipexole] as the molecule, how does the “dose at which major excitation was displayed” value (monkeys) read?
A: 3.5 mg/kg

Q: And the “dose at which vomiting occurred” value (dogs)?
A: ≥ 0.0007 mg/kg

Q: And the “doses at which death occurred” value (rodents [1])?
A: 70 to 105 mg/kg

Q: What about the “equivalent human dose of the rodent lethal dose” value (rodents [2]; human equivalent of 70-105 mg/kg in rodents) of the same molecule?
A: 7 to 12 mg/kg

Q: And the “equivalent human dose of the rodent lethal dose for a 70 kg individual” value (rodents [2]; rodents, in vivo)?
A: 500 to 850 mg

Q: And the “initial single dose not tolerated” value (humans; human subjects, initial single dose)?
A: greater than 0.20 mg

Q: What about the “dose shown to cause somnolence” value (humans; humans, 'as low as') of the same molecule?
A: 1.5 mg
